Where two headings read alike, the source gives them in different places.
How the values were obtained:
[1] = system: Serratia marcescens (SMA) isolates; experiment: MIC of compounds alone and combined with antibacterials, broth microdilution (CLSI); format: cell-based; conditions: Serratia marcescens
How it was run: (§1)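 Log-phase isolates were inoculated at a final 5.10^5 CFU/mL in cation-adjusted Mueller-Hinton broth and incubated 16-20 h at 35° C in ambient air. MIC was the lowest concentration preventing visible growth; for combinations, the antibacterial MIC was read at each compound concentration.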

[2] = system: Klebsiella pneumoniae (KPN) isolates; experiment: as above; format: cell-based; conditions: Klebsiella pneumoniae
How it was run: as §1

For `C=CC1=C(C(=O)O)N2C(=O)[C@@H](NC(=O)/C(=N\O)c3csc(N)n3)[C@H]2SC1` [CDR, Cefdinir], which MIC [1] is on record?
The MIC was over 256 µg/mL.

What about the MIC ([1]; strain SMA UFR134, genotype TEM-1, BES-1, read-out: MIC) of the same molecule?
Its MIC is 256 µg/mL.

And the MIC ([1]; strain SMA UFR137, genotype SME-1, read-out: MIC)?
The MIC was 4 µg/mL.

And the MIC ([1]; strain SMA UFR138, genotype SME-1, read-out: MIC)?
The MIC was 8 µg/mL.

What about the MIC ([1]; strain SMA UFR139, genotype SME-2, read-out: MIC) of the same molecule?
The MIC was 64 µg/mL.

And the MIC ([1]; strain SMA UFR239, genotype ESAC, read-out: MIC)?
Its MIC is 128 µg/mL.

And the MIC ([2]; BAA1898, strain KPN BAA-1898, genotype TEM-1, SHV-11, SHV-12, KPC-2)?
The MIC was over 256 µg/mL.

What about the MIC ([2]; strain KPN 6299, genotype TEM-1, SHV-11, OXA-163, read-out: MIC) of the same molecule?
The MIC was 256 µg/mL.

What about the MIC ([2]; strain KPN 110376, genotype TEM-1, SHV-1, CTX-M-15, OXA-1, OXA-48) of the same molecule?
The MIC was over 256 µg/mL.

And the MIC ([2]; strain KPN 131119, genotype TEM-1, SHV-11, CTX-M-15, OXA-1, OXA-48)?
The MIC was over 256 µg/mL.

And the MIC ([2]; strain KPN 140513, genotype TEM-1, SHV-11, CTX-M-15, KPC-3)?
The MIC was over 256 µg/mL.

And the MIC ([2]; strain KPN 160143, genotype TEM-1, SHV-1, CTX-M-15, KPC-2, OXA-1)?
Its MIC is over 256 µg/mL.

And the MIC ([2]; strain KPN 190128, genotype TEM-1, SHV-32, CTX-M-15, OXA-1)?
The MIC was over 256 µg/mL.

What about the MIC ([2]; strain KPN 190270, genotype TEM-1, SHV-76, CTX-M-15, OXA-1) of the same molecule?
The MIC was over 256 µg/mL.

And the MIC ([2]; strain KPN 190425, genotype TEM-1, SHV-1, CTX-M-15, OXA-1)?
The MIC was over 256 µg/mL.

And the MIC ([2]; strain KPN 190551, genotype TEM-1, SHV-1, CTX-M-15, OXA-1)?
The MIC was over 256 µg/mL.

And the MIC ([2]; strain KPN 200047, genotype TEM-1, SHV-32, CTX-M-15, OXA-1)?
Its MIC is over 256 µg/mL.

What about the MIC ([2]; strain KPN 200327, genotype TEM-1, SHV-1, CTX-M-15, OXA-1) of the same molecule?
The MIC was over 256 µg/mL.

What about the MIC ([2]; strain KPN 260251, genotype TEM-1, SHV-11, SHV-12, CTX-M-15, KPC-2) of the same molecule?
The MIC was over 256 µg/mL.

And the MIC ([2]; strain KPN 260252, genotype TEM-1, SHV-11, KPC-3)?
The MIC was over 256 µg/mL.

What about the MIC ([2]; strain KPN 260376, genotype SHV-1, SHV-49, OXA-1) of the same molecule?
The MIC was over 256 µg/mL.

And the MIC ([2]; strain KPN 270077, genotype TEM-1, SHV-1, CTX-M-15)?
The MIC was over 256 µg/mL.

And the MIC ([2]; strain KPN 700603, genotype SHV-18, OXA-2, read-out: MIC)?
Its MIC is 4 µg/mL.

And the MIC ([2]; strain KPN ARA, genotype TEM-1, SHV-11, CTX-M-15, OXA-1, OXA-48)?
Its MIC is over 256 µg/mL.

And the MIC ([2]; strain KPN LIB, genotype SHV-11, OXA-48)?
The MIC was over 256 µg/mL.

What about the MIC ([2]; strain KPN UFR22_O, genotype TEM-1, SHV-1, OXA-48) of the same molecule?
The MIC was over 256 µg/mL.

What about the MIC ([2]; strain KPN UFR23, genotype TEM-1, SHV-1, OXA-48) of the same molecule?
The MIC was over 256 µg/mL.

And the MIC ([2]; strain KPN UFR24, genotype TEM-1, SHV-2, SHV-11, OXA-1, OXA-48, OXA-47)?
The MIC was over 256 µg/mL.

What about the MIC ([2]; strain KPN UFR25, genotype TEM-1, SHV-11, CTX-M-15, OXA-162) of the same molecule?
Its MIC is over 256 µg/mL.

And the MIC ([2]; strain KPN UFR27, genotype TEM-1, SHV-28, CTX-M-15, OXA-204)?
Its MIC is over 256 µg/mL.

What about the MIC ([2]; strain KPN UFR28, genotype TEM-1, SHV-1, CTX-M-15, OXA-1, OXA-232) of the same molecule?
Its MIC is over 256 µg/mL.

And the MIC ([2]; strain KPN UFR65, genotype TEM-1, SHV-11, KPC-2)?
The MIC was over 256 µg/mL.

What about the MIC ([2]; strain KPN UFR66, genotype TEM-1, SHV-11, CTX-M-15, KPC-2) of the same molecule?
Its MIC is over 256 µg/mL.

And the MIC ([2]; strain KPN UFR67, genotype TEM-1, SHV-11, KPC-3)?
The MIC was over 256 µg/mL.

What about the MIC ([2]; strain KPN UFR68, genotype TEM-1, SHV-11, CTX-M-15, KPC-3) of the same molecule?
The MIC was over 256 µg/mL.

And the MIC ([2]; strain KPN UFR76, genotype TEM-155, SHV-11, ACT-1, OXA-2)?
The MIC was over 256 µg/mL.

What about the MIC ([2]; strain KPN UFR77, genotype CMY-2, read-out: MIC) of the same molecule?
Its MIC is 64 µg/mL.

And the MIC ([2]; strain KPN UFR78, genotype TEM-1, SHV-1, CTX-M-15, CMY-2, OXA-1, OXA-48)?
Its MIC is over 256 µg/mL.

What about the MIC ([2]; strain KPN UFR79, genotype DHA-1, OXA-1, read-out: MIC) of the same molecule?
Its MIC is 256 µg/mL.

What about the MIC ([2]; strain KPN UFR80, genotype SHV-11, DHA-1, OXA-1, read-out: MIC) of the same molecule?
Its MIC is 1 µg/mL.

What about the MIC ([2]; strain KPN UFR81, genotype TEM-1, SHV-1, DHA-1, OXA-48) of the same molecule?
The MIC was over 256 µg/mL.

And the MIC ([2]; strain KPN UFR215, genotype SHV-27, CTX-M-15)?
Its MIC is over 256 µg/mL.

And the MIC ([2]; strain KPN UFR216, genotype SHV-28, CTX-M-15)?
The MIC was over 256 µg/mL.

And the MIC ([2]; strain KPN UFR217, genotype TEM-1, SHV-1, CTX-M-15)?
The MIC was over 256 µg/mL.

What about the MIC ([2]; strain KPN UFR219, genotype SHV-12, CTX-M-15) of the same molecule?
Its MIC is over 256 µg/mL.

And the MIC ([2]; strain KPN UFR220, genotype TEM-1, SHV-12, DHA-1)?
The MIC was over 256 µg/mL.

And the MIC ([2]; strain KPN UFR221, genotype TEM-1, SHV-11, CTX-M-14, DHA-1, read-out: MIC)?
Its MIC is 128 µg/mL.

What about the MIC ([2]; strain KPN UFR222, genotype DHA-2) of the same molecule?
Its MIC is over 256 µg/mL.

And the MIC ([2]; strain KPN UFR227O, genotype TEM-x, SHV-x, CTX-M-x)?
Its MIC is over 256 µg/mL.

— patent publication US20200017495A1, “NOVEL HETEROCYCLIC COMPOUNDS AND THEIR USE IN PREVENTING OR TREATING BACTERIAL INFECTIONS” (priority 2017, published 2020)
